Experimental data published in patent US20230143612A1 (Arbutus Biopharma Corporation, priority 2020, published 2023).

These compounds were tested against PD-L1 His protein / PD-1 Fc protein (Homo sapiens, UniProt Q9NZQ7) (assay: HTRF Assay (PD-1/PD-L1 interaction)). Settings: PD-L1 His 6 nM, PD-1 Fc 6 nM.
Assay type: binding
Procedure, shortened: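 Compounds tested from 20 μM down to 0.001 μM (3-fold) against 6 nM PD-L1 His and 6 nM PD-1 Fc, 15 min room temperature incubation. Detection after 1 h at room temperature with Tb cryptate anti-6HIS and XL665 anti-human IgG reagents (mixture at 0.35 nM and 6.7 nM), HTRF signal.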

Sequence of PD-L1 His protein / PD-1 Fc protein (Q9NZQ7 19-238 limits assumed): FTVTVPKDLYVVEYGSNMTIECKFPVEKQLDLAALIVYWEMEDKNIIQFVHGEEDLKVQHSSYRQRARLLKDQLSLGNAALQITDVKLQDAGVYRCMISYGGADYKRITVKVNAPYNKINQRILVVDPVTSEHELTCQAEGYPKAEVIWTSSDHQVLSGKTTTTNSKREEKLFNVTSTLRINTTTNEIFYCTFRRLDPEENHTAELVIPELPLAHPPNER

In order of rising IC50:
1. COc1nc(-c2cccc(-c3cccc(-c4ccn5c(=O)c(CNCC6(O)CC6)cnc5c4)c3Cl)c2Cl)ccc1CNC[C@@H]1CCC(=O)N1 [Example 234, (S)-8-(2,2′-Dichloro-3′-(6-methoxy-5-((((5-oxopyrrolidin-2-yl)methyl)amino)methyl)pyridin-2-yl)-[1,1′-biphenyl]-3-yl)-3-((((1-hydroxycyclopropyl)methyl)amino)methyl)-4H-pyrido[1,2-a]pyrimidin-4-one]  0.1 nM
2. COc1nc(-c2cccc(-c3cccc(-c4ccn5c(=O)c(CNC[C@@H](O)CC(N)=O)cnc5c4)c3Cl)c2Cl)ccc1CNC[C@@H]1CCC(=O)N1 [Example 238, (3S)-4-[[8-[2-chloro-3-[2-chloro-3-[6-methoxy-5-[[[(2S)-5-oxopyrrolidin-2-yl]methylamino]methyl]-2-pyridyl]phenyl]phenyl]-4-oxo-pyrido[1,2-a]pyrimidin-3-yl]methylamino]-3-hydroxy-butanamide]  0.1 nM
3. COc1nc(-c2cccc(-c3cccc(-c4ccc5nn(CCO)c(=O)n5c4)c3Cl)c2Cl)ccc1CNC[C@@H]1CCC(=O)N1 [Example 239, (S)-6-(2,2′-Dichloro-3′-(6-methoxy-5-((((5-oxopyrrolidin-2-yl)methyl)amino)methyl)pyridin-2-yl)-[1,1′-biphenyl]-3-yl)-2-(2-hydroxyethyl)-[1,2,4]triazolo[4,3-a]pyridin-3(2H)-one]  0.1 nM
4. COc1nc(-c2cccc(-c3cccc(-c4ccn5c(=O)c(CNCC6(O)CCC6)cnc5c4)c3Cl)c2Cl)ccc1CNC[C@@H]1CCC(=O)N1 [Example 233, (S)-8-(2,2′-Dichloro-3′-(6-methoxy-5-((((5-oxopyrrolidin-2-yl)methyl)amino)methyl)pyridin-2-yl)-[1,1′-biphenyl]-3-yl)-3-((((1-hydroxycyclobutyl)methyl)amino)methyl)-4H-pyrido[1,2-a]pyrimidin-4-one]  0.2 nM
5. COc1nc(-c2cccc(-c3cccc(-c4ccn5c(=O)c(CNCC6(O)COC6)cnc5c4)c3Cl)c2Cl)ccc1CNC[C@@H]1CCC(=O)N1 [Example 243, (S)-8-(2,2′-dichloro-3′-(6-methoxy-5-((((5-oxopyrrolidin-2-yl)-methyl)-amino)-methyl)pyridin-2-yl)-[1,1′-biphenyl]-3-yl)-3-((((3-hydroxyoxetan-3-yl)methyl)-amino)-methyl)-4H-pyrido[1,2-a]-pyrimidin-4-one]  0.3 nM
6. COc1nc(-c2cccc(-c3cccc(-c4ccn5c(=O)c(CNCC6(CO)COC6)cnc5c4)c3Cl)c2Cl)ccc1CNC[C@@H]1CCC(=O)N1 [Example 244, (S)-8-(2,2′-dichloro-3′-(6-methoxy-5-((((5-oxopyrrolidin-2-yl)methyl)amino)-methyl)-pyridin-2-yl)-[1,1′-biphenyl]-3-yl)-3-((((3-(hydroxymethyl)oxetan-3-yl)-methyl)-amino)-methyl)-4H-pyrido[1,2-a]pyrimidin-4-one]  0.6 nM
7. COc1nc(-c2cccc(-c3cccc(-c4cc(F)c(CNC[C@@H]5CCC(=O)N5)c(OC)n4)c3Cl)c2Cl)cc(F)c1CNC[C@@H]1CCC(=O)N1 [Example 236, (5S,5′S)-5,5′-(((((2,2′-dichloro-[1,1′-biphenyl]-3,3′-diyl)bis(4-fluoro-2-methoxypyridine-6,3-diyl))bis(methylene))bis(azanediyl))bis(methylene))bis(pyrrolidin-2-one)]  1.2 nM
8. COc1nc(-c2cccc(-c3cccc(-c4ccn5c(=O)c(CNCC67CCC(C6)C(=O)N7)cnc5c4)c3Cl)c2Cl)ccc1CNC[C@@H]1CCC(=O)N1 (stereo partly drawn) [Example 252, 8-[2-Chloro-3-[2-chloro-3-[6-methoxy-5-[[[(2S)-5-oxopyrrolidin-2-yl]methylamino]methyl]-2-pyridyl]phenyl]phenyl]-3-[[(3-oxo-2-azabicyclo[2.2.1]heptan-1-yl)methylamino]methyl]pyrido[1,2-a]pyrimidin-4-one]  4.7 nM
9. COc1nc(-c2cccc(-c3cccc(-c4ccn5c(=O)c(CNCC6(C)COC6)cnc5c4)c3Cl)c2Cl)ccc1CNC[C@@H]1CCC(=O)N1 [Example 246, (S)-8-(2,2′-dichloro-3′-(6-methoxy-5-((((5-oxopyrrolidin-2-yl)-methyl)amino)-methyl)pyridin-2-yl)-[1,1′-biphenyl]-3-yl)-3-((((3-methyloxetan-3-yl)-methyl)-amino)-methyl)-4H-pyrido[1,2-a]pyrimidin-4-one]  6.7 nM
10. COc1nc(-c2cccc(-c3cccc(-c4ccc5nc(CNC[C@@H]6CCC(=O)N6)oc5c4)c3Cl)c2Cl)ccc1CNC[C@@H]1CCC(=O)N1 [Example 248, (S)-5-((((6-(2,2′-Dichloro-3′-(2-(((((S)-5-oxopyrrolidin-2-yl)methyl)amino)methyl)benzo[d]oxazol-6-yl)-[1,1′-biphenyl]-3-yl)-2-methoxypyridin-3-yl)methyl)amino)methyl)pyrrolidin-2-one]  250 nM
11. COc1nc(-c2cccc(-c3cccc(-c4nnc5n4CCNC5)c3Cl)c2Cl)ccc1CNC[C@@H]1CCC(=O)N1 [Example 240, (S)-5-((((6-(2,2′-Dichloro-3′-(5,6,7,8-tetrahydro-[1,2,4]triazolo[4,3-a]pyrazin-3-yl)-[1,1′-biphenyl]-3-yl)-2-methoxypyridin-3-yl)methyl)amino)methyl)pyrrolidin-2-one]  350 nM
12. COc1nc(-c2cccc(-c3cccc(-c4ccc5oc(CNC[C@@H]6CCC(=O)N6)nc5c4)c3Cl)c2Cl)ccc1CNC[C@@H]1CCC(=O)N1 [Example 247, (S)-5-((((6-(2,2′-Dichloro-3′-(2-(((((S)-5-oxopyrrolidin-2-yl)methyl)amino)methyl)benzo[d]oxazol-5-yl)-[1,1′-biphenyl]-3-yl)-2-methoxypyridin-3-yl)methyl)amino)methyl)pyrrolidin-2-one]  450 nM
13. NC1(Cc2ccc(-c3cccc(-c4cccc(-c5ccn6c(=O)c(CNC[C@@H]7CCC(=O)N7)cnc6c5)c4Cl)c3Cl)cc2)CC1 [Example 237, (S)-8-(4″-((1-Aminocyclopropyl)methyl)-2,2′-dichloro-[1,1′:3′,1″-terphenyl]-3-yl)-3-((((5-oxopyrrolidin-2-yl)methyl)amino)methyl)-4H-pyrido[1,2-a]pyrimidin-4-one]  900 nM
14. COc1nc(-c2cccc(-c3cccc(-c4cnc5sc(N6CCN(CCO)CC6)nn45)c3Cl)c2Cl)ccc1CNC[C@@H]1CCC(=O)N1 [Example 241, (S)-5-((((6-(2,2′-Dichloro-3′-(2-(4-(2-hydroxyethyl)piperazin-1-yl)imidazo[2,1-b][1,3,4]thiadiazol-5-yl)-[1,1′-biphenyl]-3-yl)-2-methoxypyridin-3-yl)methyl)amino)methyl)pyrrolidin-2-one]  900 nM
15. COc1nc(-c2cccc(-c3cccc(-c4nnc5n4CCN(CCO)C5)c3Cl)c2Cl)ccc1CNC[C@@H]1CCC(=O)N1 [Example 242, (S)-5-((((6-(2,2′-Dichloro-3′-(7-(2-hydroxyethyl)-5,6,7,8-tetrahydro-[1,2,4]triazolo[4,3-a]pyrazin-3-yl)-[1,1′-biphenyl]-3-yl)-2-methoxypyridin-3-yl)methyl)amino)methyl)pyrrolidin-2-one]  1700 nM
